Experimental data reported in ChEMBL document CHEMBL1275492, “In vitro activity of ceftobiprole against pathogens from two phase 3 clinical trials of complicated skin and skin structure infections” (2008).
Converted amounts (≈) assume the structure as drawn.

Assays:
Type in all cases: functional
[1] = system: Bacteroides fragilis; test: Antibacterial activity against Bacteroides fragilis obtained from complicated skin and skin structure infections by agar dilution method
[2] = system: Prevotella; test: Antibacterial activity against Prevotella spp. obtained from complicated skin and skin structure infections by agar dilution method
[3] = system: Veillonella; test: Antibacterial activity against Veillonella spp. obtained from complicated skin and skin structure infections by agar dilution method
[4] = system: Staphylococcus aureus; test: Antibacterial activity against Staphylococcus aureus obtained from complicated skin and skin structure infections by agar dilution method
[5] = system: Staphylococcus aureus; test: Antibacterial activity against methicillin resistant Staphylococcus aureus obtained from complicated skin and skin structure infections by agar dilution method
[6] = system: Staphylococcus aureus; test: Antibacterial activity against methicillin susceptible Staphylococcus aureus obtained from complicated skin and skin structure infections by agar dilution method
[7] = system: Staphylococcus epidermidis; test: Antibacterial activity against coagulase-negative Staphylococcus epidermidis obtained from complicated skin and skin structure infections by agar dilution method
[8] = system: Staphylococcus haemolyticus; test: Antibacterial activity against coagulase-negative Staphylococcus haemolyticus obtained from complicated skin and skin structure infections by agar dilution method
[9] = system: Staphylococcus lugdunensis; test: Antibacterial activity against coagulase-negative Staphylococcus lugdunensis obtained from complicated skin and skin structure infections by agar dilution method
[10] = system: Staphylococcus hominis; test: Antibacterial activity against coagulase-negative Staphylococcus hominis obtained from complicated skin and skin structure infections by agar dilution method
[11] = system: Staphylococcus capitis; test: Antibacterial activity against coagulase-negative Staphylococcus capitis obtained from complicated skin and skin structure infections by agar dilution method
[12] = system: Staphylococcus saprophyticus; test: Antibacterial activity against coagulase-negative Staphylococcus saprophyticus obtained from complicated skin and skin structure infections by agar dilution method
[13] = system: Staphylococcus cohnii; test: Antibacterial activity against coagulase-negative Staphylococcus cohnii obtained from complicated skin and skin structure infections by agar dilution method
[14] = system: Mammaliicoccus sciuri; test: Antibacterial activity against coagulase-negative Staphylococcus sciuri obtained from complicated skin and skin structure infections by agar dilution method
[15] = system: Staphylococcus warneri; test: Antibacterial activity against coagulase-negative Staphylococcus warneri obtained from complicated skin and skin structure infections by agar dilution method
[16] = system: Staphylococcus lugdunensis; test: Antibacterial activity against methicillin-resistant, oxacillin-susceptible, coagulase-negative, mecA-positive Staphylococcus lugdunensis obtained from complicated skin and skin structure infections by agar dilution method
[17] = system: Staphylococcus; test: Antibacterial activity against methicillin-susceptible, coagulase-negative Staphylococcus obtained from complicated skin and skin structure infections by agar dilution method
[18] = system: Enterococcus faecalis; test: Antibacterial activity against Enterococcus faecalis obtained from complicated skin and skin structure infections by agar dilution method
[19] = system: Enterococcus faecium; test: Antibacterial activity against Enterococcus faecium obtained from complicated skin and skin structure infections by agar dilution method
[20] = system: Streptococcus agalactiae; test: Antibacterial activity against Streptococcus agalactiae obtained from complicated skin and skin structure infections by agar dilution method
[21] = system: Streptococcus pyogenes; test: Antibacterial activity against Streptococcus pyogenes obtained from complicated skin and skin structure infections by agar dilution method
[22] = Antibacterial activity against Streptococcus sp. 'group C' obtained from complicated skin and skin structure infections by agar dilution method
[23] = Antibacterial activity against Streptococcus sp. 'group G' obtained from complicated skin and skin structure infections by agar dilution method
[24] = system: Streptococcus constellatus; test: Antibacterial activity against Streptococcus constellatus obtained from complicated skin and skin structure infections by agar dilution method
[25] = system: Streptococcus mitis; test: Antibacterial activity against Streptococcus mitis obtained from complicated skin and skin structure infections by agar dilution method
[26] = system: Staphylococcus intermedius; test: Antibacterial activity against Staphylococcus intermedius obtained from complicated skin and skin structure infections by agar dilution method
[27] = system: Aerococcus viridans; test: Antibacterial activity against Aerococcus viridans obtained from complicated skin and skin structure infections by agar dilution method
[28] = system: Bacillus; test: Antibacterial activity against Bacillus spp. obtained from complicated skin and skin structure infections by agar dilution method
[29] = system: Gemella morbillorum; test: Antibacterial activity against Gemella morbillorum obtained from complicated skin and skin structure infections […]
[30] = system: Gemella; test: Antibacterial activity against Gemella spp. obtained from complicated skin and skin structure infections by agar dilution method
[31] = system: Lactococcus lactis; test: Antibacterial activity against Lactococcus lactis obtained from complicated skin and skin structure infections by agar dilution method
[32] = system: Micrococcus; test: Antibacterial activity against Micrococcus spp. obtained from complicated skin and skin structure infections by agar dilution method

`Cc1ncc([N+](=O)[O-])n1CCO` [METRONIDAZOLE] showed an MIC [1] of 0.5 µg/mL (≈ 2.92 µM), an MIC [2] of 0.5 µg/mL (≈ 2.92 µM) and an MIC [3] of 0.5 µg/mL (≈ 2.92 µM).
`CC(=O)NC[C@H]1CN(c2ccc(N3CCOCC3)c(F)c2)C(=O)O1` [LINEZOLID] showed an MIC50 [4] of 2 µg/mL (≈ 5.93 µM), an MIC90 [4] of 2 µg/mL (≈ 5.93 µM) and an MIC50 [5] of 2 µg/mL (≈ 5.93 µM). The MIC90 [5] was 2 µg/mL (≈ 5.93 µM), the MIC50 [6] was 2 µg/mL (≈ 5.93 µM) and the MIC90 [6] was 2 µg/mL (≈ 5.93 µM). For the same compound, the MIC50 [7] was 1 µg/mL (≈ 2.96 µM), the MIC90 [7] was 1 µg/mL (≈ 2.96 µM) and the MIC50 [8] was 1 µg/mL (≈ 2.96 µM). It also gave an MIC90 [8] of 1 µg/mL (≈ 2.96 µM), an MIC50 [9] of 1 µg/mL (≈ 2.96 µM) and an MIC90 [9] of 1 µg/mL (≈ 2.96 µM). It also gave an MIC50 [10] of 1 µg/mL (≈ 2.96 µM), an MIC90 [10] of 1 µg/mL (≈ 2.96 µM) and an MIC50 [11] of 1 µg/mL (≈ 2.96 µM). It also gave an MIC90 [11] of 1 µg/mL (≈ 2.96 µM), an MIC50 [12] of 1 µg/mL (≈ 2.96 µM) and an MIC90 [12] of 1 µg/mL (≈ 2.96 µM). For the same compound, the MIC50 [13] was 1 µg/mL (≈ 2.96 µM), the MIC90 [13] was 1 µg/mL (≈ 2.96 µM) and the MIC50 [14] was 1 µg/mL (≈ 2.96 µM). For the same compound, the MIC90 [14] was 1 µg/mL (≈ 2.96 µM), the MIC50 [15] was 1 µg/mL (≈ 2.96 µM) and the MIC90 [15] was 1 µg/mL (≈ 2.96 µM). The MIC50 [16] was 1 µg/mL (≈ 2.96 µM), the MIC90 [16] was 1 µg/mL (≈ 2.96 µM) and the MIC50 [17] was 1 µg/mL (≈ 2.96 µM). For the same compound, the MIC90 [17] was 1 µg/mL (≈ 2.96 µM), the MIC50 [18] was 1 µg/mL (≈ 2.96 µM) and the MIC90 [18] was 2 µg/mL (≈ 5.93 µM). It also gave an MIC [19] of 2 µg/mL (≈ 5.93 µM), an MIC50 [19] of 2 µg/mL (≈ 5.93 µM) and an MIC50 [20] of 1 µg/mL (≈ 2.96 µM). The MIC90 [20] was 1 µg/mL (≈ 2.96 µM), the MIC50 [21] was 1 µg/mL (≈ 2.96 µM) and the MIC90 [21] was 1 µg/mL (≈ 2.96 µM). It also gave an MIC50 [22] of 1 µg/mL (≈ 2.96 µM), an MIC90 [22] of 2 µg/mL (≈ 5.93 µM) and an MIC [23] of 1 µg/mL (≈ 2.96 µM). For the same compound, the MIC50 [23] was 1 µg/mL (≈ 2.96 µM), the MIC90 [23] was 1 µg/mL (≈ 2.96 µM) and the MIC50 [24] was 1 µg/mL (≈ 2.96 µM). The MIC90 [24] was 1 µg/mL (≈ 2.96 µM), the MIC50 [25] was no more than 0.06 µg/mL and the MIC90 [25] was 0.06 µg/mL (≈ 0.178 µM). For the same compound, the MIC50 [26] was no more than 0.06 µg/mL, the MIC90 [26] was 0.06 µg/mL (≈ 0.178 µM) and the MIC50 [27] was 1 µg/mL (≈ 2.96 µM). For the same compound, the MIC90 [27] was 2 µg/mL (≈ 5.93 µM), the MIC50 [28] was 1 µg/mL (≈ 2.96 µM) and the MIC90 [28] was 2 µg/mL (≈ 5.93 µM). For the same compound, the MIC50 [29] was 1 µg/mL (≈ 2.96 µM), the MIC90 [29] was 2 µg/mL (≈ 5.93 µM) and the MIC50 [30] was 1 µg/mL (≈ 2.96 µM). It also gave an MIC90 [30] of 2 µg/mL (≈ 5.93 µM), an MIC50 [31] of 1 µg/mL (≈ 2.96 µM) and an MIC90 [31] of 2 µg/mL (≈ 5.93 µM). For the same compound, the MIC50 [32] was 1 µg/mL (≈ 2.96 µM) and the MIC90 [32] was 2 µg/mL (≈ 5.93 µM).
